Assay results: US11174464B2, “Method for preparing osteoblasts and osteoblast inducer” (KYOTO PREFECTURAL PUBLIC UNIVERSITY CORPORATION, priority 2014, dated 2021)

Tests used:
[1] = tested on: normal human dermal fibroblast (HDF) strain; assay: Alizarin Red S staining of calcified bone matrix in fibroblasts cultured in induction medium; conditions: for Alizarin Red S staining images and intensity (OD 550-650 nm), ability to produce calcified matrix: 28 days (FIG. 19); for Alizarin Red S staining intensity (OD 550-650 nm), ability to produce calcified matrix: 28 days (FIG. 10)
human Runx2 gene = assay: Real-time RT-PCR of Runx2 mRNA in cultured HDF; assay type: cell-based; conditions: induction medium, 28 days (FIG. 17)
Method: The culture was performed as in “1” above by adding the stated compounds.
Then, total RNA was collected from the cells using ISOGEN II, and cDNA was synthesized using ReverTra Ace qPCR RT Master Mix. Real-time PCR Master Mix, and a TaqMan probe and primers specific to human Runx2 gene were added, and real-time RT-PCR was performed using an AB7300 Real-Time PCR System.

human osteocalcin (OC) = assay: Real-time RT-PCR of osteocalcin (OC) mRNA in cultured HDF; assay type: cell-based; conditions: 5% human serum induction medium, 28 days (FIG. 16)
Method: The culture was performed as in “2-6” above by adding the stated compounds.
Then, total RNA was collected from the cells using ISOGEN II, and cDNA was synthesized using ReverTra Ace qPCR RT Master Mix. Real-time PCR Master Mix, and a TaqMan probe and primers specific to human osteocalcin (OC) were added, and real-time RT-PCR was performed using an AB7300 Real-Time PCR System.

[2] = tested on: human alkaline phosphatase (ALP) gene; assay: Real-time RT-PCR of ALP mRNA in cultured HDF; assay type: cell-based; conditions: 10% FBS induction medium, 28 days, relative to normal human fibroblasts = 1 (FIG. 13)
Method: Then, total RNA was collected from the cells using ISOGEN II, and cDNA was synthesized using ReverTra Ace qPCR RT Master Mix. Real-time PCR Master Mix, TaqMan probes, specific primers, and cDNA were mixed, and real-time RT-PCR was performed using an AB7300 Real-Time PCR System to quantify the mRNA of Runx2, osteocalcin (OC), and alkaline phosphatase (ALP) genes. […] Further, RNA was harvested from human osteoblasts, and the same analysis was performed.
The culture was performed as in “2-1” above by adding the stated compounds.
Then, total RNA was collected from the cells using ISOGEN II, and cDNA was synthesized using ReverTra Ace qPCR RT Master Mix. Real-time PCR Master Mix, and a TaqMan probe and primers specific to a human alkaline phosphatase (ALP) gene were added, and real-time RT-PCR was performed using an AB7300 Real-Time PCR System. Furthermore, total RNA was extracted from osteoblasts from normal human bone, and analysis was performed in a similar manner.
Furthermore, total RNA was extracted from osteoblasts from normal human bone, and analysis was performed in a similar manner.
Twenty-eight days after the culture, the mRNA expression of ALP gene in the cells in each well was analyzed by real-time RT-PCR, as in “2-3” above. Furthermore, total RNA was extracted from osteoblasts from normal human bone, and analysis was performed in a similar manner.

[3] = tested on: Normal human white preadipocytes (HWPs); assay: Alizarin Red S staining, induction from normal human white preadipocytes; assay type: cell-based; conditions: induction medium with 10% FBS, 21 days (FIG. 23)

Row | ALP mRNA expression by real-time RT-PCR [2] | SMILES | Alizarin Red S staining images and intensity (OD 550-650 nm), ability to produce calcified matrix [1] | Runx2 mRNA expression by real-time RT-PCR (human Runx2 gene) | osteocalcin (OC) mRNA expression by real-time RT-PCR (human osteocalcin (OC)) | Alizarin Red S staining intensity (OD 550-650 nm), ability to produce calcified matrix ([1]; induction medium with 10% FBS) | Alizarin Red S staining images, ability to produce calcified matrix [3] | Alizarin Red S staining images and intensity, ability to produce calcified matrix ([1]; induction medium with 5% human serum, 28 days (FIG. 12)) | Alizarin Red S staining images and intensity, ability to produce calcified matrix ([1]; induction medium with 10% FBS, 28 days (FIG. 11))
1 | – | O=C(O)c1ccc2c(c1)nc(Nc1cccc(Cl)c1)c1ccncc12 [CX-4945] | no effect | – | – | – | – | – | –
2 | – | Nc1nccc2c1ncn2[C@@H]1C=C(CO)[C@@H](O)[C@H]1O [DZNep, 3-deazaneplanocin A] | induced the ability to produce calcified matrix | – | – | – | – | – | –
3 | induced the mRNA expression of ALP gene | CC(C)c1nc(N(C)S(C)(=O)=O)nc(-c2ccc(F)cc2)c1/C=C/[C@@H](O)C[C@@H](O)CC(=O)O [RS, rosuvastatin] | – | induced the mRNA expression of Runx2 gene | induced the mRNA expression of osteocalcin | induced the ability to produce calcified matrix | – | – | –
4 | induced the mRNA expression of ALP gene | CC[C@H](C)C(=O)O[C@H]1C[C@@H](C)C=C2C=C[C@H](C)[C@H](CC[C@@H]3C[C@@H](O)CC(=O)O3)[C@H]21 [LS, lovastatin] | – | induced the mRNA expression of Runx2 gene | – | induced the ability to produce calcified matrix | – | – | –
5 | induced the mRNA expression of ALP gene | NC(=O)c1ccc(-c2nc(-c3ccc4c(c3)OCCO4)c(-c3ccccn3)[nH]2)cc1 [D4476, 4-[4-(2,3-dihydro-1,4-benzodioxin-6-yl)-5-(2-pyridinyl)1H-imidazol-2-yl]-benzamide] | induced the ability to produce calcified matrix | – | – | induced the ability to produce calcified matrix | strongly induced the ability to produce calcified matrix | induced a higher ability to produce calcified matrix | induced the ability to produce calcified matrix
6 | induced the mRNA expression of ALP gene | CC(C)c1c(C(=O)Nc2ccccc2)c(-c2ccccc2)c(-c2ccc(F)cc2)n1CC[C@@H](O)C[C@@H](O)CC(=O)O [AS, atorvastatin] | – | induced the mRNA expression of Runx2 gene | – | induced the ability to produce calcified matrix | – | – | –
